Results reported in patent US7407963B2, “Cyclopropane CGRP antagonists, medicaments containing these compounds, and method for the production thereof” (Boehringer Ingelheim Pharma GmbH & Co. KG, priority 1999, dated 2008).

SMILES | melting point [°C]
O=C(c1ccc(Cl)cc1)[C@H]1C[C@H]1C(=O)N1CCC(N2Cc3ccccc3NC2=O)CC1 (relative stereo) [Item No. 1, cis-3-{1-[2-(4-chlorobenzoyl)cyclopropanecarbonyl]-4-piperidinyl}-3,4-dihydro-2(1H)-quinazolinone] | 272 to 273
CN(C)CCOc1ccc2c(c1)CN(C1CCN(C(=O)[C@@H]3C[C@H]3C(=O)c3cc(Br)c(N)c(Br)c3)CC1)C(=O)N2 (relative stereo) [Item No. 16, trans-3-{1-[2-(4-amino-3,5-dibromobenzoyl)cyclopropanecarbonyl]-4-piperidinyl}-3,4-dihydro-6-[2-(dimethylamino)ethoxy]-2(1H)-quinazolinone] | 235
Nc1c(Br)cc(C(=O)[C@@H]2C[C@H]2C(=O)N2CCC(n3cc(-c4ccccc4C(F)(F)F)[nH]c3=O)CC2)cc1Br (relative stereo) [Item No. 18, trans-1-{1-[2-(4-amino-3,5-dibromobenzoyl)cyclopropanecarbonyl]-4-piperidinyl}-1,3-dihydro-4-[2-(trifluoromethyl)phenyl]-2(2H)-imidazolone] | 248
